In EP4570271A1, “METAL-PHOSPHOLIPID COMPLEX, METAL-PHOSPHOLIPID COMPLEX PARTICLE, DRUG-LIPID PARTICLE, METHOD FOR PREPARING SAME, AND USE THEREOF” (priority 2022, dated 2024):

Tested on: 293T cells
Experiment: cells
Format: cell-based
Details: Homo sapiens, HEK-293T

SMILES	IC50 (Table 2-2, 48 hours, CCK8)	IC50 (Table 4-3, CCK8)
CCCCCCCCC(CCCCCC)C(=O)OCCCCCCN(CCCCO)CCCCCCOC(=O)C(CCCCCC)CCCCCCCC (stereo not shown) [ALC0315]	145 µM	145 µM
CCCCCCCC/C=C\CCCCCCCC(=O)OC[C@H](C[N+](C)(C)C)OC(=O)CCCCCCC/C=C\CCCCCCCC [DOTAP, N-(2,3-dioleoyloxy)propyl)-N,N,N-trimethylammonium chloride]	40.7 µM	40.7 µM
